Test results: ChEMBL document CHEMBL1201862, “PubChem BioAssay data set” (2004)
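Five concentrations, 48 hours, 96-well plates. GI50 = concentration required for 50% inhibition of growth.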 The source made the active and inactive calls. No stated cut-off is given here; in the data, active = GI50 up to about 1.1 µM and inactive = higher.

Assays:
Experiment in all cases: DTP human tumour cell line panel, 48 h
[1] = test system: HOP-62
[2] = test system: HOP-92
[3] = test system: TK-10
[4] = test system: A498
[5] = test system: A549
[6] = test system: HCT-116
[7] = test system: OVCAR-5
[8] = test system: Hs-578T
[9] = test system: 786-0
[10] = test system: KM12
[11] = test system: CCRF-CEM
[12] = test system: Malme-3M
[13] = test system: MCF7
[14] = test system: SF-295
[15] = test system: UACC-257
[16] = test system: NCI-H23
[17] = test system: UO-31
[18] = test system: SR
[19] = test system: UACC-62
[20] = test system: DU-145
[21] = test system: K562
[22] = test system: SNB-75
[23] = test system: HT-29
[24] = test system: MDA-N
[25] = test system: SK-OV-3
[26] = test system: SK-MEL-5
[27] = test system: OVCAR-3
[28] = test system: COLO 205
[29] = test system: NCI-H460
[30] = test system: NCI/ADR-RES
[31] = test system: SN12C
[32] = test system: EKVX
[33] = test system: M14
[34] = test system: LOX IMVI
[35] = test system: SNB-19
[36] = test system: BT-549
[37] = test system: SK-MEL-2
[38] = test system: CAKI-1
[39] = test system: IGROV-1
[40] = test system: ACHN
[41] = test system: HCT-15
[42] = test system: MOLT-4
[43] = test system: RXF 393
[44] = test system: SK-MEL-28
[45] = test system: OVCAR-4
[46] = test system: OVCAR-8
[47] = test system: NCI-H522
[48] = test system: SW-620
[49] = test system: T47D
[50] = test system: U-251
[51] = test system: MDA-MB-231
[52] = test system: MDA-MB-435
[53] = test system: HCC 2998
[54] = test system: RPMI-8226
[55] = test system: SF-268
[56] = test system: HL-60

CCOC(=O)O/N=C1/C(=C2/C(=O)Nc3ccccc32)Nc2ccccc21
GI50 [1]: 6.81 µM (inactive) | GI50 [2]: 22.3 µM (inactive) | GI50 [3]: 5.35 µM (inactive) | GI50 [4]: 1.47 µM (inactive) | GI50 [5]: 4.56 µM (inactive) | GI50 [6]: 3.03 µM (inactive) | GI50 [7]: 16.5 µM (inactive) | GI50 [8]: 2.9 µM (inactive) | GI50 [9]: 5.92 µM (inactive) | GI50 [10]: 0.192 µM (active) | GI50 [11]: 2.87 µM (inactive) | GI50 [12]: 10 µM (inactive) | GI50 [13]: 3.69 µM (inactive) | GI50 [14]: 8.73 µM (inactive) | GI50 [15]: 10.2 µM (inactive) | GI50 [16]: 4.47 µM (inactive) | GI50 [17]: 3.65 µM (inactive) | GI50 [18]: 3.61 µM (inactive) | GI50 [19]: 8.32 µM (inactive) | GI50 [20]: 2.87 µM (inactive) | GI50 [21]: 12.2 µM (inactive) | GI50 [22]: 3.4 µM (inactive) | GI50 [23]: 10.1 µM (inactive) | GI50 [24]: 3.91 µM (inactive) | GI50 [25]: 1.59 µM (inactive) | GI50 [26]: 2.37 µM (inactive) | GI50 [27]: 2.15 µM (inactive) | GI50 [28]: 15.5 µM (inactive) | GI50 [29]: 3.13 µM (inactive) | GI50 [30]: 4.83 µM (inactive) | GI50 [31]: 4.41 µM (inactive) | GI50 [32]: 2.54 µM (inactive) | GI50 [33]: 10.3 µM (inactive) | GI50 [34]: 4.8 µM (inactive) | GI50 [35]: 18.7 µM (inactive) | GI50 [36]: 7.31 µM (inactive) | GI50 [37]: 2.29 µM (inactive) | GI50 [38]: 1.86 µM (inactive) | GI50 [39]: 4.34 µM (inactive) | GI50 [40]: 4.41 µM (inactive) | GI50 [41]: 2.7 µM | GI50 [42]: 3.74 µM (inactive) | GI50 [43]: 1.24 µM (inactive) | GI50 [44]: 10.9 µM (inactive) | GI50 [45]: 6.4 µM (inactive) | GI50 [46]: 5.83 µM (inactive) | GI50 [47]: 8.53 µM (inactive) | GI50 [48]: 5.21 µM (inactive) | GI50 [49]: 3.93 µM (inactive) | GI50 [50]: 9.14 µM (inactive) | GI50 [51]: 11.6 µM (inactive) | GI50 [52]: 4.48 µM (inactive) | GI50 [53]: 2.73 µM (inactive) | GI50 [54]: 10.8 µM (inactive) | GI50 [55]: 5.73 µM (inactive) | GI50 [56]: 4.95 µM (inactive)
